Tests used:
[1] = molecular target: T1, human eIF4E protein (Homo sapiens, UniProt P06730); assay: Biochemical competitive binding assay (TR-FRET competition, EDA-m7GDP-ATTO-647N probe); conditions: read-out: hEIF4E TR-FRET IC50
T1 construct: purchased Novus NBP-45314
Outline: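 IC50 values come from 4-parameter fits of the normalized 665/620 nm TR-FRET ratio. Compound was first incubated 15 min with 4 nM recombinant His-eIF4E bound to 2.5 nM Eu-anti-His antibody, then 15 min with 5 nM m7GDP-ATTO-647N tracer, in pH 7.5 HEPES buffer with 100 mM KCl, Tween-20 and BSA.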

[2] = tested on: COLO 205 colorectal tumor cells; assay: Tumor cell viability inhibition assay (CellTiter-Glo 2.0, 72 hours); assay type: cell-based; conditions: COLO 205 cell viability
Outline: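 IC50 derived by 4-parameter fitting after normalizing luminescence to DMSO and max-inhibition wells. Compounds tested as 11 concentrations in 4-fold steps on COLO 205 cells seeded at 1500 per well in RPMI-1640/10% FBS; ATP content measured with CellTiter-Glo 2.0 after 72 h.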

T1 sequence (P06730 whole entry): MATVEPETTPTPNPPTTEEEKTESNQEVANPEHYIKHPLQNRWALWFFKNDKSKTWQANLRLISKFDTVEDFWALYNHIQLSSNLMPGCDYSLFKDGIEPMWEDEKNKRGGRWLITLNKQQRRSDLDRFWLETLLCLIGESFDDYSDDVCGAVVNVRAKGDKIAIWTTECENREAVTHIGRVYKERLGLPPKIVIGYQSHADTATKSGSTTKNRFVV

SMILES | IC50 [1] [µM] | IC50 ([2]; Homo sapiens, COLO 205, 72 h) [µM] | IC50 [2] [µM]
Cc1nc2c(c(=O)n1CC#Cc1ccc(Cl)cc1-c1ccnc3c(C(=O)O)csc13)C[C@H](N1CCC[C@@]3(C1)CC3(F)F)CC2 (single isomer, unassigned) [Compound 550, 7-(5-chloro-2-(3-(6-(1,1-difluoro-5-azaspiro[2.5]octan-5-yl)-2-methyl-4-oxo-5,6,7,8-tetrahydroquinazolin-3(4H)-yl)prop-1-yn-1-yl)phenyl)thieno[3,2-b]pyridine-3-carboxylic acid] | < 0.1 | < 5 | 
CO[C@@H](C1CCN([C@@H]2CCc3nc(C)n(CCOc4ccc(Cl)cc4-c4cc(C)nc5c(C(=O)O)csc45)c(=O)c3C2)CC1)C(F)(F)F (single isomer, unassigned) [Compound 551] | < 0.1 | < 5 | 
CO[C@H](C1CCN([C@@H]2CCc3nc(C)n(CCOc4ccc(Cl)cc4-c4cc(C)nc5c(C(=O)O)csc45)c(=O)c3C2)CC1)C(F)(F)F (single isomer, unassigned) [Compound 552] | < 0.1 | < 5 | 
Cc1cc(-c2cc(Cl)ccc2OCCn2c(C)nc3c(c2=O)C[C@](C)(N2CCC[C@]4(C2)CC4(F)F)CC3)c2scc(C(=O)O)c2n1 (single isomer, unassigned) [Compound 553] | < 0.1 | < 5 | 
Cc1cc(-c2cc(Cl)ccc2OCCn2c(C)nc3c(c2=O)C[C@](C)(N2CCC[C@@]4(C2)CC4(F)F)CC3)c2scc(C(=O)O)c2n1 (single isomer, unassigned) [Compound 554] | 0.1 to 0.5 | 5 to 20 | 
Cc1cc(-c2cc(Cl)ccc2OCCn2c(C)nc3c(c2=O)C[C@@](C)(N2CCC[C@@]4(C2)CC4(F)F)CC3)c2scc(C(=O)O)c2n1 (single isomer, unassigned) [Compound 555] | 0.1 to 0.5 | 5 to 20 | 
Cc1cc(-c2cc(Cl)ccc2OCCn2c(C)nc3c(c2=O)CC(C)(N2CCC4(CC2)CC4(F)F)CC3)c2scc(C(=O)O)c2n1 (single isomer, unassigned) [Compound 556] | < 0.1 | < 5 | 
Cc1cc(-c2cc(Cl)ccc2OCCn2c(C)nc3c(c2=O)CC(C)(N2CCC4(CC2)CC4(F)F)CC3)c2scc(C(=O)O)c2n1 (single isomer, unassigned) [Compound 557] | < 0.1 |  | < 5
CO[C@@H]1CCN([C@]2(C)CCc3nc(C)n(CCOc4ccc(Cl)cc4-c4cc(C)nc5c(C(=O)O)csc45)c(=O)c3C2)CC1(C)C (single isomer, unassigned) [Compound 558] | 0.1 to 0.5 | 5 to 20 | 
COC1CCN(C2(C)CCc3nc(C)n(CCOc4ccc(Cl)cc4-c4cc(C)nc5c(C(=O)O)csc45)c(=O)c3C2)CC1(C)C (single isomer, unassigned) [Compound 559] | 0.1 to 0.5 | 5 to 20 | 
Cc1cc(-c2cc(Cl)ccc2OCCn2c(C)nc3c(c2=O)C[C@H](N2CCC(COC(F)(F)F)CC2)CC32CC2)c2scc(C(=O)O)c2n1 (single isomer, unassigned) [Compound 560] | < 0.1 | < 5 | 
Cc1cc(-c2cc(Cl)ccc2OCCn2c(C)nc3c(c2=O)C[C@@H](N2CCC(COC(F)(F)F)CC2)CC32CC2)c2scc(C(=O)O)c2n1 (single isomer, unassigned) [Compound 561] | < 0.1 | < 5 | 
CO[C@@H](C1CCN([C@H]2CCc3nc(C)n(CCOc4ccc(Cl)cc4-c4cc(C)nc5c(C(=O)O)csc45)c(=O)c3C2)CC1)C(F)(F)F (single isomer, unassigned) [Compound 562] | < 0.1 | < 5 | 
CO[C@H](C1CCN([C@H]2CCc3nc(C)n(CCOc4ccc(Cl)cc4-c4cc(C)nc5c(C(=O)O)csc45)c(=O)c3C2)CC1)C(F)(F)F (single isomer, unassigned) [Compound 563] | < 0.1 | < 5 | 
Cc1cc(-c2cc(Cl)ccc2OCCn2c(C)nc3c(c2=O)C[C@H](N2CCC4(CC2)CC4(F)F)CC32CC2)c2scc(C(=O)O)c2n1 (single isomer, unassigned) [Compound 564] | < 0.1 | < 5 | 
COC1CCN(C2(C)CCc3nc(C)n(CCOc4ccc(Cl)cc4-c4cc(C)nc5c(C(=O)O)csc45)c(=O)c3C2)CC1(C)C (single isomer, unassigned) [Compound 565] | < 0.1 |  | < 5
Cc1cc(-c2cc(Cl)ccc2OCCn2c(C)nc3c(c2=O)C[C@H](N(C)CC2CC(F)(F)C2)CC32CC2)c2scc(C(=O)O)c2n1 (single isomer, unassigned) [Compound 568] | < 0.1 | < 5 | 

SMILES | IC50 [1] [µM] | IC50 ([2]; Homo sapiens, COLO 205, 72 h) [µM] | IC50 [2] [µM]
Cc1cc(-c2cc(Cl)ccc2OCCn2c(C)nc3c(c2=O)C[C@@H](N(C)CC2CC(F)(F)C2)CC32CC2)c2scc(C(=O)O)c2n1 (single isomer, unassigned) [Compound 569] | < 0.1 | < 5 | 
Cc1nc2c(c(=O)n1CC#Cc1ccc(Cl)cc1-c1ccnc3c(C(=O)O)csc13)C[C@H](N1CCC[C@]3(C1)CC3(F)F)CC2 (single isomer, unassigned) [Compound 570, 7-(5-chloro-2-(3-(6-(1,1-difluoro-5-azaspiro[2.5]octan-5-yl)-2-methyl-4-oxo-5,6,7,8-tetrahydroquinazolin-3(4H)-yl)prop-1-yn-1-yl)phenyl)thieno[3,2-b]pyridine-3-carboxylic acid] | < 0.1 | < 5 | 
Cc1cc(-c2cc(Cl)ccc2OCCn2c(C)nc3c(c2=O)C[C@H](N2CCC(c4ccccc4OC(F)(F)F)CC2)CC3)c2scc(C(=O)O)c2n1 (single isomer, unassigned) [Compound 571] | < 0.1 | < 5 | 
Cc1cc(-c2cc(Cl)ccc2OCCn2c(C)nc3c(c2=O)C[C@@H](N2CCC(c4ccccc4OC(F)(F)F)CC2)CC3)c2scc(C(=O)O)c2n1 (single isomer, unassigned) [Compound 572] | < 0.1 | < 5 | 
Cc1cc(-c2cc(Cl)ccc2OCCn2c(C)nc3c(c2=O)C[C@H](N2CCC(c4cc(F)cc(F)c4F)CC2)CC3)c2scc(C(=O)O)c2n1 (single isomer, unassigned) [Compound 573] | < 0.1 | < 5 | 
Cc1cc(-c2cc(Cl)ccc2OCCn2c(C)nc3c(c2=O)C[C@@H](N2CCC(c4cc(F)cc(F)c4F)CC2)CC3)c2scc(C(=O)O)c2n1 (single isomer, unassigned) [Compound 574] | < 0.1 | < 5 | 
COc1cc(C2CCN([C@@H]3CCc4nc(C)n(CCOc5ccc(Cl)cc5-c5cc(C)nc6c(C(=O)O)csc56)c(=O)c4C3)CC2)ccn1 (single isomer, unassigned) [Compound 575] | < 0.1 | < 5 | 
COc1cc(C2CCN([C@H]3CCc4nc(C)n(CCOc5ccc(Cl)cc5-c5cc(C)nc6c(C(=O)O)csc56)c(=O)c4C3)CC2)ccn1 (single isomer, unassigned) [Compound 576] | < 0.1 | < 5 | 
Cc1cc(-c2cc(Cl)ccc2OCCn2c(C)nc3c(c2=O)C[C@H](N2CCC(c4nc(C(F)(F)F)cs4)CC2)CC3)c2scc(C(=O)O)c2n1 (single isomer, unassigned) [Compound 577] | < 0.1 | < 5 | 
Cc1cc(-c2cc(Cl)ccc2OCCn2c(C)nc3c(c2=O)C[C@@H](N2CCC(c4nc(C(F)(F)F)cs4)CC2)CC3)c2scc(C(=O)O)c2n1 (single isomer, unassigned) [Compound 578] | < 0.1 | < 5 | 
Cc1cc(-c2cc(Cl)ccc2OCCn2c(C)nc3c(c2=O)CC(N2CCC(OC(F)(F)F)CC2)CC32CC2)c2scc(C(=O)NS(C)(=O)=O)c2n1 (single isomer, unassigned) [Compound 579, 7-(5-chloro-2-(2-(2′-methyl-4′-oxo-6′-(4-(trifluoromethoxy)piperidin-1-yl)-6′,7′-dihydro-4′H-spiro[cyclopropane-1,8′-quinazolin]-3′(5′H)-yl)ethoxy)phenyl)-5-methyl-N-(methylsulfonyl)thieno[3,2-b]pyridine-3-carboxamide] | < 0.1 | < 5 | 
Cc1cc(-c2cc(Cl)ccc2OCCn2c(C)nc3c(c2=O)C[C@H](N2CCC[C@@]4(C2)CC4(F)F)CC32CC2)c2scc(C(=O)O)c2n1 (single isomer, unassigned) [Compound 580] | < 0.1 | < 5 | 
Cc1cc(-c2cc(Cl)ccc2OCCn2c(C)nc3c(c2=O)C[C@H](N2CCC[C@]4(C2)CC4(F)F)CC32CC2)c2scc(C(=O)O)c2n1 (single isomer, unassigned) [Compound 581] | < 0.1 | < 5 | 
Cc1cc(-c2cc(Cl)ccc2OCCn2c(C)nc3c(c2=O)C[C@@H](N2CCC[C@@]4(C2)CC4(F)F)CC32CC2)c2scc(C(=O)O)c2n1 (single isomer, unassigned) [Compound 582] | < 0.1 | < 5 | 
Cc1cc(-c2cc(Cl)ccc2OCCn2c(C)nc3c(c2=O)C[C@@H](N2CCC[C@]4(C2)CC4(F)F)CC32CC2)c2scc(C(=O)O)c2n1 (single isomer, unassigned) [Compound 583] | < 0.1 | < 5 | 
Cc1cc(-c2cc(Cl)ccc2OCCn2c(C)nc3c(c2=O)C[C@H](N2CCC(c4cnc(C(F)(F)F)nc4)CC2)CC3)c2scc(C(=O)O)c2n1 (single isomer, unassigned) [Compound 584] | < 0.1 | 5 to 20 | 
Cc1cc(-c2cc(Cl)ccc2OCCn2c(C)nc3c(c2=O)C[C@@H](N2CCC(c4cnc(C(F)(F)F)nc4)CC2)CC3)c2scc(C(=O)O)c2n1 (single isomer, unassigned) [Compound 585] | < 0.1 | < 5 | 

Reference: patent US20240246918A1, “COMPOUNDS AND COMPOSITIONS AS EIF4E INHIBITORS AND THE USES THEREOF” (Ribometrix, Inc., priority 2022, published 2024)
